The values that follow come from the supplement of paper PMC10307832.

What all share (experiment): relative viability (nuclei count vs DMSO), 5 days (fraction); higher = more cells survive
Compound in assay [1]: N[C@@H]1CCCN(c2c(/C=C3\SC(=O)NC3=O)cccc2-c2ccccc2)C1 [AZD1208] + C[C@]1(O)C[C@@H](c2nc(-c3ccc4ccc(-c5ccccc5)nc4c3)c3c(N)nccn32)C1 [Linsitinib] (partner 1 µM)
The procedure, abridged: (§1)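 Five library-drug doses in √10 steps were combined with a fixed anchor-drug dose, or a single drug was given alone, by pin tool to lung cancer cell lines in 1536-well plates the day after seeding. Nuclei were stained and counted after 5 days. Relative viability is the nuclei count in treated wells over that in vehicle wells, taken as the median of duplicate plates.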

Compound in assay [2]: N[C@@H]1CCCN(c2c(/C=C3\SC(=O)NC3=O)cccc2-c2ccccc2)C1 [AZD1208] + CC(C)C[C@H](NC(=O)[C@H](Cc1ccccc1)NC(=O)c1cnccn1)B(O)O [Bortezomib] (partner 0.002 µM)
The procedure, abridged:
as §1

Compound in assay [3]: N[C@@H]1CCCN(c2c(/C=C3\SC(=O)NC3=O)cccc2-c2ccccc2)C1 [AZD1208] + COc1cc2c(Oc3ccc(NC(=O)C4(C(=O)Nc5ccc(F)cc5)CC4)cc3F)ccnc2cc1OCCCN1CCOCC1 [Foretinib] (partner 0.25 µM)
The procedure, abridged: as §1

Compound in assay [4]: CN1CCN(CC1)C2=CC(=C(C=C2)NC3=NC(=C(S3)C(=O)C4=C(C=CC=C4Cl)Cl)N)OC [XMD14-99] + Cc1cc(Nc2cc(N3CCN(C)CC3)nc(Sc3ccc(NC(=O)C4CC4)cc3)n2)n[nH]1 [Tozasertib] (partner 0.1 µM)
The procedure, abridged: as §1

As to PC-14, the relative viability in assay [1] (first compound 0.08 µM) was found to be 0.942; in assay [1] (first compound 0.253 µM), 1.12; in assay [1] (first compound 0.8 µM), 0.977; in assay [1] (first compound 2.53 µM) it was 1; in assay [1] (first compound 8 µM), 0.914; in assay [2] (first compound 0.08 µM), 0.963. Besides, the relative viability came to 0.954 in assay [2] (first compound 0.253 µM); 0.848 in assay [2] (first compound 0.8 µM); 1.01 in assay [2] (first compound 2.53 µM); 0.907 in assay [2] (first compound 8 µM); 1.02 in assay [3] (first compound 0.08 µM); 1.06 in assay [3] (first compound 0.253 µM). The relative viability in assay [3] (first compound 0.8 µM) came out at 1.06; in assay [3] (first compound 2.53 µM), 1.04; in assay [3] (first compound 8 µM), 0.999; in assay [4] (first compound 0.08 µM), 0.584; in assay [4] (first compound 0.8 µM), 0.572; in assay [4] (first compound 2.53 µM), 0.599. In assay [4] (first compound 8 µM), the relative viability came out at 0.368.

As to RERF-LC-KJ, the relative viability came out at 0.892 in assay [1] (first compound 0.08 µM); 0.883 in assay [1] (first compound 0.253 µM); 0.815 in assay [1] (first compound 0.8 µM); 0.794 in assay [1] (first compound 2.53 µM); 0.702 in assay [1] (first compound 8 µM); 1.1 in assay [2] (first compound 0.08 µM). For the same cell line, the relative viability in assay [2] (first compound 0.253 µM) turned out to be 1.21; in assay [2] (first compound 0.8 µM) it was 1.06; in assay [2] (first compound 2.53 µM) it was 1; in assay [2] (first compound 8 µM) it was 0.818; in assay [3] (first compound 0.08 µM), 0.865; in assay [3] (first compound 0.253 µM) it was 0.859. Also, the relative viability amounted to 0.682 in assay [3] (first compound 0.8 µM); 0.7 in assay [3] (first compound 2.53 µM); 0.546 in assay [3] (first compound 8 µM); 0.507 in assay [4] (first compound 0.08 µM); 0.464 in assay [4] (first compound 0.8 µM); 0.408 in assay [4] (first compound 2.53 µM). The relative viability in assay [4] (first compound 8 µM) was determined as 0.374.

For the cell line SK-LU-1, the relative viability in assay [1] (first compound 0.08 µM) stood at 1; in assay [1] (first compound 0.253 µM) it was 1.21; in assay [1] (first compound 0.8 µM), 1.07; in assay [1] (first compound 2.53 µM), 1.21; in assay [1] (first compound 8 µM), 0.795; in assay [2] (first compound 0.08 µM), 1.36. In addition, the relative viability in assay [2] (first compound 0.253 µM) turned out to be 1.24; in assay [2] (first compound 0.8 µM), 1.09; in assay [2] (first compound 2.53 µM), 0.996; in assay [2] (first compound 8 µM), 0.812; in assay [3] (first compound 0.08 µM), 0.794; in assay [3] (first compound 0.253 µM), 0.917. Also, the relative viability in assay [3] (first compound 0.8 µM) stood at 0.8; in assay [3] (first compound 2.53 µM) it was 0.721; in assay [3] (first compound 8 µM), 0.661; in assay [4] (first compound 0.08 µM), 0.34; in assay [4] (first compound 0.8 µM), 0.298; in assay [4] (first compound 2.53 µM) it was 0.355. Moreover, the relative viability in assay [4] (first compound 8 µM) turned out to be 0.254.

For the cell line SW 1573, the relative viability in assay [1] (first compound 0.08 µM) stood at 0.725; in assay [1] (first compound 0.253 µM), 0.637; in assay [1] (first compound 0.8 µM), 0.745; in assay [1] (first compound 2.53 µM), 0.656; in assay [1] (first compound 8 µM), 0.534; in assay [2] (first compound 0.08 µM) it was 0.963. Moreover, the relative viability in assay [2] (first compound 0.253 µM) stood at 1.14; in assay [2] (first compound 0.8 µM), 0.935; in assay [2] (first compound 2.53 µM), 0.907; in assay [2] (first compound 8 µM), 0.717; in assay [3] (first compound 0.08 µM), 0.709; in assay [3] (first compound 0.253 µM), 0.872. Besides, the relative viability amounted to 0.837 in assay [3] (first compound 0.8 µM); 0.573 in assay [3] (first compound 2.53 µM); 0.653 in assay [3] (first compound 8 µM); 0.168 in assay [4] (first compound 0.08 µM); 0.286 in assay [4] (first compound 0.8 µM); 0.198 in assay [4] (first compound 2.53 µM). In addition, the relative viability in assay [4] (first compound 8 µM) amounted to 0.21.

For the cell line UMC-11, the relative viability in assay [1] (first compound 0.08 µM) stood at 0.909; in assay [1] (first compound 0.253 µM), 0.767; in assay [1] (first compound 0.8 µM), 0.772; in assay [1] (first compound 2.53 µM) it was 0.67; in assay [1] (first compound 8 µM), 0.558; in assay [2] (first compound 0.08 µM) it was 0.742. Further, the relative viability in assay [2] (first compound 0.253 µM) was 0.755; in assay [2] (first compound 0.8 µM), 0.644; in assay [2] (first compound 2.53 µM), 0.62; in assay [2] (first compound 8 µM), 0.374; in assay [3] (first compound 0.08 µM), 0.884; in assay [3] (first compound 0.253 µM), 0.877. Moreover, the relative viability in assay [3] (first compound 0.8 µM) is 0.77; in assay [3] (first compound 2.53 µM), 0.741; in assay [3] (first compound 8 µM) it was 0.458; in assay [4] (first compound 0.08 µM), 0.196; in assay [4] (first compound 0.8 µM), 0.227; in assay [4] (first compound 2.53 µM) it was 0.231. Besides, the relative viability in assay [4] (first compound 8 µM) stood at 0.23.
